The term IC50 denotes the concentration needed to halve the response being measured.

A short description of series [1]: Fluorescence property of compound in CH3CN assessed as fluorescence quantum yield by spectrofluorometric analysis. Format: physicochemical.
For series [2], the system named is MCF7. Briefly: Antiproliferative activity against human MCF7 cells assessed as inhibition of cell growth incubated for 72 hrs under photoirradiation with 6 cool white lamps for 15 mins at 4,28 and 52 hrs after compound addition by MTT assay. Format: functional, cell-based. Conditions: MCF7, light or radiation study. (Formazan colour is commonly taken as a measure of viable cells.)

The subject of series [3] is NCI-H460. The experiment in a line: Induction of cell death in human NCI-H460 cells assessed as membrane blebbing preincubated for 30 mins followed by light irradiation for 15 to 30 mins by Hoechst 33342 staining based confocal microscopic analysis. The format is functional. Conditions: time 45-60 min.
Series [4] concerns NCI-H460. The experiment in a line: Antiproliferative activity against human NCI-H460 cells assessed as inhibition of cell growth incubated for 72 hrs under photoirradiation with 6 cool white lamps for 15 mins at 4,28 and 52 hrs after compound addition by MTT assay. Format: functional, cell-based. The following applies: NCI-H460, light or radiation study.
Series [5] concerns NCI-H460. Briefly: Induction of cell death in human NCI-H460 cells assessed as dye bleaching preincubated for 30 mins followed by light irradiation for 15 to 30 mins by Hoechst 33342 staining based confocal microscopic analysis. The format is functional. The following applies: time 45-60 min.
Series [6] in a line: Absorption property of compound in CH3CN assessed as maximal molar absorption coefficient by UV-vis spectrophotometer. Format: physicochemical.
Series [7] in a line: Emission property of compound in CH3CN assessed as maximal wavelength by […]. Format: physicochemical.
The subject of series [8] is HCT-116. The experiment in a line: Antiproliferative activity against human HCT-116 cells assessed as inhibition of cell growth incubated for 72 hrs under photoirradiation with 6 cool white lamps for 15 mins at 4,28 and 52 hrs after compound addition by MTT assay. Format: functional, cell-based. Conditions: HCT-116, light or radiation study.
The nature of series [9]: Drug localization in lipid droplets of human NCI-H460 cells incubated for 30 mins by Hoechst 33342 staining based confocal microscopic analysis. The format is ADME, subcellular, Lipid droplet. The following applies: nci-h460, 0.5 h.
A short description of series [10]: Drug uptake in HEK293T cells by fluorescence microscopic analysis. Format: ADME, cell-based. The following applies: human, hek-293t.
Series [11] deals with NCI-H460. The experiment in a line: Induction of cell death in human NCI-H460 cells assessed as shrinkage of nuclear volume preincubated for 30 mins followed by light irradiation for 15 to 30 mins by Hoechst 33342 staining based confocal microscopic analysis. The format is functional. Conditions: time 45-60 min.
A short description of series [12]: Drug localization in nuclear membrane of human NCI-H460 cells incubated for 30 mins by Hoechst 33342 staining based confocal microscopic analysis. The following applies: nci-h460, 0.5 h. The format is ADME, cell membranes.
The subject of series [13] is MCF7. The experiment in a line: Antiproliferative activity against human MCF7 cells assessed as inhibition of cell growth incubated for 72 hrs under dark condition by MTT assay. Format: functional, cell-based. Conditions: MCF7, 72 h.
The test system of series [14] is HEK-293T. Briefly: Induction of apoptosis in HEK293T cells assessed as dye bleaching irradiated with visible light by Hoechst 33342 staining based confocal microscopic analysis. The format is toxicity, cell-based. The following applies: human.
The subject of series [15] is HCT-116. Briefly: Antiproliferative activity against human HCT-116 cells assessed as inhibition of cell growth incubated for 72 hrs under dark condition by MTT assay. The format is functional, cell-based. The following applies: HCT-116, 72 h.
Series [16] can be described thus: Drug localization in cytoplasm of human NCI-H460 cells incubated for 30 mins by Hoechst 33342 staining based confocal microscopic analysis. The format is ADME, subcellular. The following applies: nci-h460, 0.5 h.
Series [17] is described as follows: Drug localization in endoplasmic reticulum of human NCI-H460 cells incubated for 30 mins by Hoechst 33342 staining based confocal microscopic analysis. Conditions: nci-h460, 0.5 h. Format: ADME, subcellular.
Series [18] in a line: Drug localization in golgi body of human NCI-H460 cells incubated for 30 mins by Hoechst 33342 staining based confocal microscopic analysis. The format is ADME, subcellular. Conditions: nci-h460, 0.5 h.
Series [19] in a line: Absorption property of compound in CH3CN assessed as maximal wavelength by UV-vis spectrophotometer. Format: physicochemical.
Series [20] concerns NCI-H460. Briefly: Antiproliferative activity against human NCI-H460 cells assessed as inhibition of cell growth incubated for 72 hrs under dark condition by MTT assay. The format is functional, cell-based. The following applies: NCI-H460, 72 h.
Series [21] deals with HEK-293T. Briefly: Induction of apoptosis in HEK293T cells assessed as cell death irradiated with visible light by Hoechst 33342 staining based confocal microscopic analysis. The format is toxicity. The following applies: human.
Series [22] has as its system NCI-H460. Briefly: Induction of cell death in human NCI-H460 cells assessed as cell shrinkage preincubated for 30 mins followed by light irradiation for 15 to 30 mins by Hoechst 33342 staining based confocal microscopic analysis. Format: functional. The following applies: time 45-60 min.
Series [23] in a line: Drug localization in nuclear membrane of human NCI-H460 cells at 10 uM incubated for 30 mins by Hoechst 33342 staining based confocal microscopic analysis. Format: ADME, cell membranes. Conditions: nci-h460, 0.5 h.
Series [24] concerns NCI-H460. Briefly: Induction of cell death in human NCI-H460 cells assessed as shrinkage of nuclear volume at 1 uM preincubated for 30 mins followed by light irradiation for 15 to 30 mins by Hoechst 33342 staining based confocal microscopic analysis. Conditions: time 45-60 min. The format is functional.
The nature of series [25]: Cytotoxicity against HEK293T cells assessed as inhibition of cell growth incubated for 72 hrs under photoirradiation with 6 cool white lamps for 15 mins at 4,28 and 52 hrs after compound addition by MTT assay. The following applies: human. The format is toxicity, cell-based, HEK-293T.
A short description of series [26]: Drug localization in lipid droplets of human NCI-H460 cells at 10 uM incubated for 30 mins by Hoechst 33342 staining based confocal microscopic analysis. Format: ADME, subcellular, Lipid droplet. The following applies: nci-h460, 0.5 h.
Series [27] in a line: Drug localization in cytoplasm of human NCI-H460 cells at 10 uM incubated for 30 mins by Hoechst 33342 staining based confocal microscopic analysis. Format: ADME, subcellular. Conditions: nci-h460, 0.5 h.
A short description of series [28]: Drug localization in golgi body of human NCI-H460 cells at 10 uM incubated for 30 mins by Hoechst 33342 staining based confocal microscopic analysis. Conditions: nci-h460, 0.5 h. Format: ADME, subcellular.
In series [29] the test system is HCT-116. The experiment in a line: Induction of ROS generation in human HCT-116 cells assessed as increase in oxidative stress at 5 uM preincubated with compound for 1 hrs followed by photoirradiation with 6 cool white lamps by DCFH-DA staining based fluorescence analysis. Format: functional, cell-based.
Series [30] has as its system NCI-H460. The experiment in a line: Induction of cell death in human NCI-H460 cells assessed as cell shrinkage at 1 uM preincubated for 30 mins followed by light irradiation for 15 to 30 mins by Hoechst 33342 staining based confocal microscopic analysis. The following applies: time 45-60 min. The format is functional.
A short description of series [31]: Cytotoxicity against HEK293T cells assessed as inhibition of cell growth incubated for 72 hrs under dark condition by MTT assay. Format: toxicity, cell-based, HEK-293T. Conditions: human.
Series [32] in a line: Cytotoxicity against human HaCaT cells assessed as inhibition of cell growth incubated for 72 hrs under photoirradiation with 6 cool white lamps for 15 mins at 4,28 and 52 hrs after compound addition by MTT assay. Format: toxicity, cell-based.
The subject of series [33] is NCI-H460. The experiment in a line: Induction of cell death in human NCI-H460 cells assessed as dye bleaching at 1 uM preincubated for 30 mins followed by light irradiation for 15 to 30 mins by Hoechst 33342 staining based confocal microscopic analysis. Format: functional. Conditions: time 45-60 min.
Series [34] can be described thus: Drug localization in endoplasmic reticulum of human NCI-H460 cells at 10 uM incubated for 30 mins by Hoechst 33342 staining based confocal microscopic analysis. Conditions: nci-h460, 0.5 h. The format is ADME, subcellular.
Series [35] has as its system NCI-H460. Briefly: Induction of cell death in human NCI-H460 cells assessed as membrane blebbing at 1 uM preincubated for 30 mins followed by light irradiation for 15 to 30 mins by Hoechst 33342 staining based confocal microscopic analysis. The format is functional. The following applies: time 45-60 min.
Series [36] in a line: Cytotoxicity against human HaCaT cells assessed as inhibition of cell growth incubated for 72 hrs under dark condition by MTT assay. The format is toxicity, cell-based.
Series [37] has as its system HCT-116. The experiment in a line: Induction of ROS generation in human HCT-116 cells at 5 uM incubated for 1 hrs under dark condition by DCFH-DA staining based fluorescence analysis. The format is functional, cell-based.
A short description of series [38]: Induction of singlet oxygen production in CH3CN assessed as singlet oxygen quantum yield at 450 nm under photoirradiation with visible light and measured after 15 to 60 sec by DPBF based assay. The format is functional. Conditions: time 15-60 sec.
A short description of series [39]: Induction of singlet oxygen production in CH3CN assessed as decrease in fluorescence intensity at 450 nm under photoirradiation with visible light and measured after 45 sec by DPBF based assay relative to control. The format is functional. Set-up: scale not given: the % may be the effect or the level left.
A short description of series [40]: Induction of singlet oxygen production in CH3CN assessed as decrease in fluorescence intensity at 450 nm under photoirradiation with visible light and measured after 30 sec by DPBF based assay relative to control. Format: functional. Set-up: scale not given: the % may be the effect or the level left.
A short description of series [41]: Induction of singlet oxygen production in CH3CN assessed as decrease in fluorescence intensity at 450 nm under photoirradiation with visible light and measured after 1 min by DPBF based assay relative to control. Set-up: scale not given: the % may be the effect or the level left. The format is functional.
Series [42] can be described thus: Induction of singlet oxygen production in CH3CN assessed as decrease in fluorescence intensity at 450 nm under photoirradiation with visible light and measured after 15 sec by DPBF based assay relative to control. Format: functional. Set-up: scale not given: the % may be the effect or the level left.

Active and inactive are the calls of the source. No cut-off for these calls is given here. A value given as a limit tells only on which side of the number the result lay.

For the compound `CC(=O)OCc1ccccc1OCC1=C2C(C)=C(Br)C(C)=[N+]2[B-](C)(C)n2c(C)c(Br)c(C)c21`, the Activity was 0.043 in series [1]; 37724 M⁻¹ cm⁻¹ in [6]; 558 nm in series [7]; “Toxic” in the series on HEK-293T [14]; 531 nm in series [19]; “Toxic” in the series on HEK-293T [21]. The half-maximal inhibitory concentration (IC50) in the series with MCF7 [2] is 170 nM; in the series on NCI-H460 [4], 190 nM; in the series on HCT-116 [8], 160 nM; in the series with MCF7 [13], 18 µM; with HCT-116 [15], 25 µM; with NCI-H460 [20], 33 µM. Besides, the outcome in the series on NCI-H460 [3], with NCI-H460 [5], with NCI-H460 [11] and with NCI-H460 [22] was Active. Moreover, the Drug uptake entry in series [9], in series [10], in series [12], in [16], in [17] and in series [18] was “Active” in each case.
Regarding `CC1=CC(C)=[N+]2C1=C(CO)c1c(C)cc(C)n1[B-]2(C)C`, the Activity in series [1] is 0.32; in [6] it was 88894 M⁻¹ cm⁻¹; in series [7], 517 nm; with HEK-293T [14], “Toxic”; in series [19] it was 505 nm; in the series with HEK-293T [21] it was “Toxic”. Further, the Drug uptake result in series [23], in series [26], in [27], in [28], in [10] and in series [34] was “Active” in each case. Also, the result in the series on NCI-H460 [24], with HCT-116 [29], with NCI-H460 [30], with NCI-H460 [33] and in the series on NCI-H460 [35] was Active. Further, the IC50 is 150 nM with MCF7 [2]; 170 nM in the series on NCI-H460 [4]; 170 nM in the series with HCT-116 [8]; greater than 100 µM with MCF7 [13]; greater than 100 µM with HCT-116 [15]; greater than 100 µM with NCI-H460 [20]. The IC50 at 72 h in [25] was determined as 300 nM; in series [31], 38 µM; in [32] it was 300 nM; in series [36], 68 µM. Also, the result in the series with HCT-116 [37] was inactive.
For `COc1cccc(COC(C)=O)c1OCC1=C2C(C)=CC(C)=[N+]2[B-](C)(C)n2c(C)cc(C)c21`, the Activity in series [1] came out at 0.27; in [38], 0.1; in series [6], 75178 M⁻¹ cm⁻¹; in series [7], 522 nm; in series [39], 14.9%; in [40] it was 6.9%. For the same compound, the Activity in series [41] came out at 20.2%; in [42], 1%; in series [19] it was 510 nm. For the same compound, the 50% inhibitory concentration (IC50) with MCF7 [2] is 200 nM; with NCI-H460 [4], 260 nM; with HCT-116 [8], 340 nM; in the series with MCF7 [13], 47 µM; with HCT-116 [15], no less than 100 µM; with NCI-H460 [20], no less than 100 µM. For the same compound, the 50% inhibitory concentration (IC50) at 72 h in series [25] was 1300 nM; in series [31], no less than 100 µM; in [32], 600 nM; in series [36], greater than 100 µM. Further, the result in the series on HCT-116 [29] was Active. Moreover, the outcome in the series on HCT-116 [37] was inactive.

The record behind these values is ChEMBL document CHEMBL5625215, “Antiproliferative activity of meso-substituted BODIPY photocages: Effect of electrophiles vs singlet oxygen” (Eur J Med Chem, 2023).
